In patent US9006282B2 (Redx Pharma Limited, priority 2009, dated 2015):

Target: HMG-CoA Reductase (Homo sapiens (Human), UniProt P04035)
Experiment: HMG-CoA Reductase assay kit (Sigma-Aldrich CS1090), spectrophotometric NADPH absorbance at 340 nm
Format: biochemical
Conditions: atorvastatin compounds; inhibitor varied 0 nM to 50 nM; NADPH and HMG-CoA 200 μM
Protocol: All assays were carried out in a reaction buffer containing […] KxPO4 at pH 7.2, 1 mM EDTA, 500 mM KCl and 1 mg/ml BSA. The concentrations of NADPH and HMG-CoA were both 200 μM. […] Absorbance readings were then taken every 20 seconds for 600 seconds.
Preparation of the Assay Solution
Add a buffer to all samples. • b. […] Add the reconstituted NADPH to all samples. • d. Add Substrate Solution (HMG-CoA) to all samples. • e. […] Mix the samples thoroughly.
3. The kinetics programme was started immediately.
V=volume of enzyme used in the assay (ml)
0.6=enzyme concentration in mg-protein (mgPO/ml (0.55-0.65 mgP/ml)
LP=light path in cm (1 for cuvettes).

HMG-CoA Reductase, sequence (P04035 340-888): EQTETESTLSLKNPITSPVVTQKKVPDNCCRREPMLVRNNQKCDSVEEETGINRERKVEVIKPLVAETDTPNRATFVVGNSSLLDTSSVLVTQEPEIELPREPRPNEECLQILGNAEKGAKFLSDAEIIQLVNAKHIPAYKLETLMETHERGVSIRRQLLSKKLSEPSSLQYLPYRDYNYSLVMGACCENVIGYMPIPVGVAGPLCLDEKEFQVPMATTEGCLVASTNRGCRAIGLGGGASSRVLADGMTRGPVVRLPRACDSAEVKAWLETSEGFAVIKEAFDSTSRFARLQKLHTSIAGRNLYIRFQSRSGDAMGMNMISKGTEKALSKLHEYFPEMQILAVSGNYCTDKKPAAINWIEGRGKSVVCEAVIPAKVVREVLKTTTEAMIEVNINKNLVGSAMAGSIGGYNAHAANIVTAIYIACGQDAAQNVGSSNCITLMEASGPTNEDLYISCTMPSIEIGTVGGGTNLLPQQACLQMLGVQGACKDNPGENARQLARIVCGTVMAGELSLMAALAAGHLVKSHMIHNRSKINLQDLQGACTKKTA

Compound | IC50 [nM]
COc1ccc(OC2C[C@H](O)C[C@@H](CCn3c(-c4ccc(F)cc4)c(-c4ccccc4)c(C(=O)Nc4ccccc4)c3C(C)C)O2)c(OC)c1 (some centres unmarked) | < 1
CC(C)c1c(C(=O)Nc2ccccc2)c(-c2ccccc2)c(-c2ccc(F)cc2)n1CC[C@@H]1C[C@@H](O)CC(OC2CCCCC2)O1 (some centres unmarked) | < 1
CCCOC1C[C@H](O)C[C@@H](CCn2c(-c3ccc(F)cc3)c(-c3ccccc3)c(C(=O)Nc3ccccc3)c2C(C)C)O1 (some centres unmarked) | < 1
COC1C[C@H](OC(=O)c2cccnc2)C[C@@H](CCn2c(-c3ccc(F)cc3)c(-c3ccccc3)c(C(=O)Nc3ccccc3)c2C(C)C)O1 (some centres unmarked) | < 1

Same assay, conditions: rosuvastatin compounds; inhibitor varied 0 nM to 50 nM; NADPH and HMG-CoA 200 μM

Compound | IC50 [nM]
COc1ccc(OC2C[C@H](O)C[C@@H](/C=C/c3c(-c4ccc(F)cc4)nc(N(C)S(C)(=O)=O)nc3C(C)C)O2)c(OC)c1 (some centres unmarked) | 2
CCCOC1C[C@H](O)C[C@@H](/C=C/c2c(-c3ccc(F)cc3)nc(N(C)S(C)(=O)=O)nc2C(C)C)O1 (some centres unmarked) | 10
CC(C)c1nc(N(C)S(C)(=O)=O)nc(-c2ccc(F)cc2)c1/C=C/[C@@H]1C[C@@H](O)CC(OCC(Cl)(Cl)Cl)O1 (some centres unmarked) | 2
CC(C)c1nc(N(C)S(C)(=O)=O)nc(-c2ccc(F)cc2)c1/C=C/[C@@H]1C[C@@H](OCc2ccccc2)CC(OCC(Cl)(Cl)Cl)O1 (some centres unmarked) | 2
CC(C)c1nc(N(C)S(C)(=O)=O)nc(-c2ccc(F)cc2)c1/C=C/[C@@H]1C[C@@H](O)CC(Oc2c(F)cc(F)cc2F)O1 (some centres unmarked) | 1
COC1C[C@H](OC(=O)c2cccnc2)C[C@@H](/C=C/c2c(-c3ccc(F)cc3)nc(N(C)S(C)(=O)=O)nc2C(C)C)O1 (some centres unmarked) | < 1

Tested on: rat plasma triglyceride levels
Experiment: Rat plasma triglyceride levels after 3 or 5 days BID oral treatment
Format: in vivo
Conditions: male SD rats, 25 mg/kg po BID for 3 or 5 days, plasma 16 hours after last dose
Protocol: 112 male SD rats (Harlan) were housed in groups of 6 under a 12 h light dark cycle (lights on 07.00 h) with free access to food (normal laboratory chow) and water. Animals between 148-183 g were allocated to treatment groups of 8 balanced by body weight and treatments were balanced across cages.
Four rosuvastatin analogues were made up in 10% PEG300/10% cremophor/80% methyl cellulose (0.5%) (vehicle 1) to make a 5 mg/mL solution.
Rosuvastatin was formulated in 0.5% Tween in 0.5% methyl cellulose (vehicle 2) at 5 mg/kg as a suspension.
Rats were orally dosed with vehicle 1, one of the four rosuvastatin analogues in vehicle 1 (25 mg/kg), vehicle 2 or rosuvastatin in vehicle 2 (25 mg/kg po), BID for 3 or 5 days.
Sixteen hours after the last treatment, terminal plasma samples were taken, stored at −20° C., and transported on dry ice for analysis of triglyceride levels.
Data for each time-point were analysed by 1-way ANOVA and post-hoc Dunnett's test.

Compound | effect on plasma triglycerides
CC(C)c1nc(N(C)S(C)(=O)=O)nc(-c2ccc(F)cc2)c1C=CC(O)CC(O)CC(=O)O (centres unmarked) [rosuvastatin, 7-[4-(4-fluorophenyl)-6-(1-methylethyl)-2-(methyl-methylsulfonyl-amino)-pyrimidin-5-yl]-3,5-dihydroxy-hept-6-enoic acid] | marked reduction in plasma triglycerides
